Reference: patent US10058550B2, “Methods of treating heart failure” (priority 2015, dated 2018)

Biological target: human APJ receptor (Homo sapiens (Human), UniProt P35414)
Test: biochemical
Format: biochemical
Conditions: read-out: Activity hAPJ SPA EC50 IP
In short: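 Agonist-stimulated [35S]GTPγS (0.2 nM) binding was read by SPA after 90 min at room temperature. Buffer: 20 mM HEPES pH 7.5 with 5 mM MgCl2, 200 mM NaCl, 3 μM GDP, 0.1% BSA; membranes were from a stable human APJ CHO line. EC50 values are averages of independent runs, fitted by non-linear regression.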

Sequence of human APJ receptor (P35414 whole entry): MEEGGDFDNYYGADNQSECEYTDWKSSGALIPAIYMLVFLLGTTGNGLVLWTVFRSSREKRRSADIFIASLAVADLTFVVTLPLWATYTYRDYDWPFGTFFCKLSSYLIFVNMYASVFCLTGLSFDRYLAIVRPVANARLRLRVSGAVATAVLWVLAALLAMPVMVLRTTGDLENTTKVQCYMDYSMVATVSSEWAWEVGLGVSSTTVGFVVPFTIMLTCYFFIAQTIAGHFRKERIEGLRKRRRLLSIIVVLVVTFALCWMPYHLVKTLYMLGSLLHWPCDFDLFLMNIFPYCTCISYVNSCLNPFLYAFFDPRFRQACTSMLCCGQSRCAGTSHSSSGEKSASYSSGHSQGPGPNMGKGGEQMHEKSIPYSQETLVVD

Compound: COc1cccc(-c2nnc(NS(=O)(=O)[C@@H](C)[C@H](O)C(C)(C)C)n2-c2c(OC)cccc2OC)n1 (single isomer, unassigned) [Example 434.0, (2S,3R)—N-(4-(2,6-dimethoxyphenyl)-5-(6-methoxy-2-pyridinyl)-4H-1,2,4-triazol-3-yl)-3-hydroxy-4,4-dimethyl-2-pentanesulfonamide or (2R,3S)—N-(4-(2,6-dimethoxyphenyl)-5-(6-methoxy-2-pyridinyl)-4H-1,2,4-triazol-3-yl)-3-hydroxy-4,4-dimethyl-2-pentanesulfonamide]
- EC50: 120 nM

Compound: COc1cccc(-c2nnc(NS(=O)(=O)[C@@H](C)[C@@H](O)C(C)(C)C)n2-c2c(OC)cccc2OC)n1 (single isomer, unassigned) [Example 435.0, (2S,3S)—N-(4-(2,6-dimethoxyphenyl)-5-(6-methoxy-2-pyridinyl)-4H-1,2,4-triazol-3-yl)-3-hydroxy-4,4-dimethyl-2-pentanesulfonamide or (2R,3R)—N-(4-(2,6-dimethoxyphenyl)-5-(6-methoxy-2-pyridinyl)-4H-1,2,4-triazol-3-yl)-3-hydroxy-4,4-dimethyl-2-pentanesulfonamide]
- EC50: 24 nM

Compound: COc1cccc(-c2nnc(NS(=O)(=O)[C@@H](C)[C@@H](O)C(C)(C)C)n2-c2c(OC)cccc2OC)n1 (single isomer, unassigned) [Example 436.0, (2S,3S)—N-(4-(2,6-dimethoxyphenyl)-5-(6-methoxy-2-pyridinyl)-4H-1,2,4-triazol-3-yl)-3-hydroxy-4,4-dimethyl-2-pentanesulfonamide or (2R,3R)—N-(4-(2,6-dimethoxyphenyl)-5-(6-methoxy-2-pyridinyl)-4H-1,2,4-triazol-3-yl)-3-hydroxy-4,4-dimethyl-2-pentanesulfonamide]
- EC50: 100 nM

Compound: COc1cccc(-c2nnc(NS(=O)(=O)[C@@H](C)[C@H](O)C(C)(C)C)n2-c2c(OC)cccc2OC)n1 (single isomer, unassigned) [Example 437.0, (2S,3R)—N-(4-(2,6-dimethoxyphenyl)-5-(6-methoxy-2-pyridinyl)-4H-1,2,4-triazol-3-yl)-3-hydroxy-4,4-dimethyl-2-pentanesulfonamide or (2R,3S)—N-(4-(2,6-dimethoxyphenyl)-5-(6-methoxy-2-pyridinyl)-4H-1,2,4-triazol-3-yl)-3-hydroxy-4,4-dimethyl-2-pentanesulfonamide]
- EC50: 31 nM

Compound: COc1cccc(-c2nnc(NS(=O)(=O)[C@@H](C)[C@H](O)C3CC3)n2-c2c(OC)cccc2OC)n1 (single isomer, unassigned) [Example 439.0, (1R,2S)-1-cyclopropyl-N-(4-(2,6-dimethoxyphenyl)-5-(6-methoxy-2-pyridinyl)-4H-1,2,4-triazol-3-yl)-1-hydroxy-2-propanesulfonamide or (1S,2R)-1-cyclopropyl-N-(4-(2,6-dimethoxyphenyl)-5-(6-methoxy-2-pyridinyl)-4H-1,2,4-triazol-3-yl)-1-hydroxy-2-propanesulfonamide]
- EC50: 110 nM

Compound: COc1cccc(OC)c1-n1c(NS(=O)(=O)C[C@H](O)c2ccc(Cl)cc2S(C)(=O)=O)nnc1-c1cncc(C)c1 (single isomer, unassigned) [Example 458.0, (2R)-2-(4-chloro-2-(methylsulfonyl)phenyl)-N-(4-(2,6-dimethoxyphenyl)-5-(5-methyl-3-pyridinyl)-4H-1,2,4-triazol-3-yl)-2-hydroxyethanesulfonamide or (2S)-2-(4-chloro-2-(methylsulfonyl)phenyl)-N-(4-(2,6-dimethoxyphenyl)-5-(5-methyl-3-pyridinyl)-4H-1,2,4-triazol-3-yl)-2-hydroxyethanesulfonamide]
- EC50: 0.16 nM

Compound: COc1cccc(-c2nnc(NS(=O)(=O)[C@@H](C)[C@H](OC)c3ccc(C#N)cc3C#N)n2-c2c(OC)cccc2OC)n1 (single isomer, unassigned) [Example 474.0, (1R,2S)-1-(2,4-dicyanophenyl)-N-(4-(2,6-dimethoxyphenyl)-5-(6-methoxy-2-pyridinyl)-4H-1,2,4-triazol-3-yl)-1-methoxy-2-propanesulfonamide or (1S,2R)-1-(2,4-dicyanophenyl)-N-(4-(2,6-dimethoxyphenyl)-5-(6-methoxy-2-pyridinyl)-4H-1,2,4-triazol-3-yl)-1-methoxy-2-propanesulfonamide]
- EC50: 0.35 nM

Compound: COc1cccc(-c2nnc(NS(=O)(=O)[C@H](C)[C@H](OC)c3ccc(C#N)cc3C#N)n2-c2c(OC)cccc2OC)n1 (single isomer, unassigned) [Example 476.0, (1R,2R)-1-(2,4-dicyanophenyl)-N-(4-(2,6-dimethoxyphenyl)-5-(6-methoxy-2-pyridinyl)-4H-1,2,4-triazol-3-yl)-1-methoxy-2-propanesulfonamide or (1S,2S)-1-(2,4-dicyanophenyl)-N-(4-(2,6-dimethoxyphenyl)-5-(6-methoxy-2-pyridinyl)-4H-1,2,4-triazol-3-yl)-1-methoxy-2-propanesulfonamide]
- EC50: 0.55 nM

Compound: COc1cccc(-c2nnc(NS(=O)(=O)C[C@@H](O)c3ccc(C#N)cc3S(C)(=O)=O)n2-c2c(OC)cccc2OC)n1 (single isomer, unassigned) [Example 482.0, (2S)-2-(4-cyano-2-(methylsulfonyl)phenyl)-N-(4-(2,6-dimethoxyphenyl)-5-(6-methoxy-2-pyridinyl)-4H-1,2,4-triazol-3-yl)-2-hydroxyethanesulfonamide or (2R)-2-(4-cyano-2-(methylsulfonyl)phenyl)-N-(4-(2,6-dimethoxyphenyl)-5-(6-methoxy-2-pyridinyl)-4H-1,2,4-triazol-3-yl)-2-hydroxyethanesulfonamide]
- EC50: 0.2 nM

Compound: COc1cccc(-c2nnc(NS(=O)(=O)C[C@H](OC)c3ccc(C#N)cc3S(C)(=O)=O)n2-c2c(OC)cccc2OC)n1 (single isomer, unassigned) [Example 485.0, (2R)-2-(4-cyano-2-(methylsulfonyl)phenyl)-N-(4-(2,6-dimethoxyphenyl)-5-(6-methoxy-2-pyridinyl)-4H-1,2,4-triazol-3-yl)-2-methoxyethanesulfonamide or (2S)-2-(4-cyano-2-(methylsulfonyl)phenyl)-N-(4-(2,6-dimethoxyphenyl)-5-(6-methoxy-2-pyridinyl)-4H-1,2,4-triazol-3-yl)-2-methoxyethanesulfonamide]
- EC50: 0.098 nM

Compound: COc1cccc(-c2nnc(NS(=O)(=O)C[C@H](OC)c3ccc(C#N)cc3S(C)(=O)=O)n2-c2c(OC)cccc2OC)n1 (single isomer, unassigned) [Example 486.0, (2R)-2-(4-cyano-2-(methylsulfonyl)phenyl)-N-(4-(2,6-dimethoxyphenyl)-5-(6-methoxy-2-pyridinyl)-4H-1,2,4-triazol-3-yl)-2-methoxyethanesulfonamide or (2S)-2-(4-cyano-2-(methylsulfonyl)phenyl)-N-(4-(2,6-dimethoxyphenyl)-5-(6-methoxy-2-pyridinyl)-4H-1,2,4-triazol-3-yl)-2-methoxyethanesulfonamide]
- EC50: 0.073 nM

Compound: COc1cccc(OC)c1-n1c(NS(=O)(=O)C[C@H](O)c2ccc(C#N)cc2S(C)(=O)=O)nnc1-c1cncc(C)c1 (single isomer, unassigned) [Example 491.0, (2R)-2-(4-cyano-2-(methylsulfonyl)phenyl)-N-(4-(2,6-dimethoxyphenyl)-5-(5-methyl-3-pyridinyl)-4H-1,2,4-triazol-3-yl)-2-hydroxyethanesulfonamide or (2S)-2-(4-cyano-2-(methylsulfonyl)phenyl)-N-(4-(2,6-dimethoxyphenyl)-5-(5-methyl-3-pyridinyl)-4H-1,2,4-triazol-3-yl)-2-hydroxyethanesulfonamide]
- EC50: 0.33 nM

Compound: COc1cccc(OC)c1-n1c(NS(=O)(=O)C[C@H](O)c2ccc(C#N)cc2S(C)(=O)=O)nnc1-c1cncc(C)c1 (single isomer, unassigned) [Example 492.0, (2R)-2-(4-cyano-2-(methylsulfonyl)phenyl)-N-(4-(2,6-dimethoxyphenyl)-5-(5-methyl-3-pyridinyl)-4H-1,2,4-triazol-3-yl)-2-hydroxyethanesulfonamide or (2S)-2-(4-cyano-2-(methylsulfonyl)phenyl)-N-(4-(2,6-dimethoxyphenyl)-5-(5-methyl-3-pyridinyl)-4H-1,2,4-triazol-3-yl)-2-hydroxyethanesulfonamide]
- EC50: 0.61 nM

Compound: COc1cccc(OC)c1-n1c(NS(=O)(=O)[C@H](C)[C@@H](OC)c2ccc(Cl)cn2)nnc1-c1cccnc1 (single isomer, unassigned) [Example 530.0, (1S,2R)-1-(5-chloro-2-pyridinyl)-N-(4-(2,6-dimethoxyphenyl)-5-(3-pyridinyl)-4H-1,2,4-triazol-3-yl)-1-methoxy-2-propanesulfonamide or (1R,2S)-1-(5-chloro-2-pyridinyl)-N-(4-(2,6-dimethoxyphenyl)-5-(3-pyridinyl)-4H-1,2,4-triazol-3-yl)-1-methoxy-2-propanesulfonamide]
- EC50: 48.5 nM

Compound: COc1cccc(OC)c1-n1c(NS(=O)(=O)[C@@H](C)[C@@](C)(F)c2ncc(C#N)cn2)nnc1-c1cncc(C)c1 (single isomer, unassigned) [Example 537.0]
- EC50: 57 nM

Compound: COc1cccc(OC)c1-n1c(NS(=O)(=O)[C@@H](C)[C@@](C)(F)c2ncc(C#N)cn2)nnc1-c1cncc(C)c1 (single isomer, unassigned) [Example 538.0]
- EC50: 4.5 nM

Compound: COc1cccc(OC)c1-n1c(NS(=O)(=O)[C@H](C)[C@@H](OC)c2ccc(C#N)cn2)nnc1-c1cncc(C)c1 (single isomer, unassigned) [Example 552.0]
- EC50: 0.28 nM

Compound: COc1cccc(OC)c1-n1c(NS(=O)(=O)[C@H](C)[C@@H](OC)c2ccc(C#N)cn2)nnc1-c1cncc(C)c1 (single isomer, unassigned) [Example 553.0]
- EC50: 41 nM

Compound: COc1cccc(OC)c1-n1c(NS(=O)(=O)[C@H](C)[C@@H](OC)c2ccc(C#N)cn2)nnc1-c1cncc(C)c1 (single isomer, unassigned) [Example 554.0]
- EC50: 2.7 nM

Compound: COc1cccc(OC)c1-n1c(NS(=O)(=O)[C@H](C)[C@@H](OC)c2ccc(C#N)cn2)nnc1-c1cncc(C)c1 (single isomer, unassigned) [Example 555.0]
- EC50: 41 nM
